Assay results from patent US8772250B2, “Compositions and methods for treating ischemia and ischemia-reperfusion injury” (Ischemix, LLC, priority 2010, dated 2014).
Peptide text beside a SMILES is read from it.

What was measured:
[1] = Oxygen Radical Absorbance Capacity (ORAC) assay
Source text: Peroxyl radicals are one species of reactive oxygen produced by cells during reperfusion. The presence of peroxyl radicals can be detected by fluorescein oxidation. In the presence of peroxyl radicals, fluorescein fluorescence will decay over time. In the presence of an oxygen radical scavenger, the rate of decay is diminished. The change in the rate of decay between control and in the presence of scavengers is used to measure the peroxyl radical scavenging ability of a test compound.
Each compound tested was diluted to a concentration ranging from 25 μM to 250 μM in 10 mM phosphate buffer (pH=7.4) containing 10 nM fluorescein. The buffer and compound were incubated at 37° C. for 10 minutes. After the incubation, flourescein fluorescence was measured using a plate reader (Molecular Devices Flexstation II, Ex=485, Em=520). Baseline fluorescence measurements were recorded for 15 minutes before 2,2′-azobis(2-methylpropionamidine) dihydrochloride (AAPH) was added. The fluorescence decay was recorded for 90 minutes. The fluorescence decay without compound was subtracted from the fluorescence decay with compound. The slope of the decay vs. concentration is reported as the absorbance capacity.

CHO M1-WT3 cells = test: Cytosolic calcium overload assay, carbachol stimulated; assay type: cell-based, Chinese hamster; details: 200 nM carbachol, variant concentrations
Source text: Cytosolic calcium increases in the CHO M1-WT3 cells when stimulated with carbachol ([Molecular Devices, FlexStation Application Note 2, Comparison of FLIPR® and FLEXstation™ for Calcium Mobilization Assays]) and may be detected with a fluorescent dye that binds calcium. An increase in fluorescence following carbachol stimulation is interpreted as an increase in cytosolic calcium. Chinese hamster ovary (CHO) cells were allowed to adhere to the bottom of a 96-well culture plate. The fluorescent dye and a test sample were placed on the plate and allowed to be taken up by the cells. The fluorescence level was measured every two seconds using a plate reader (Flexstation II, Molecular Devices, Sunnyvale Calif.). The cells were stimulated with carbachol and fluorescent data reported as the peak increase in fluorescence above baseline following carbachol stimulation. Data were normalized to the peak carbachol response in the control sample.
CHO cells from the cell line CHO-M1-WT3 were grown in Hams F12 medium supplemented with 10% FBS and 5 μg/mL G418 to maintain expression of the M1 muscarinic receptor. Cells were seeded the night before the experiment at a concentration of 30,000 cells/well in a volume of 100 μL per well of black walled, clear bottomed, 96-well microplates (“assay plates”). Cells were incubated at 37° C. and 5% CO2 overnight. […] The cells were placed into the FlexStation system to monitor fluorescence before and after the addition of 50 μL of 1 μM carbachol for a final concentration of 200 nM. Fluorescence was measured for 17 seconds prior to carbachol addition and 43 seconds following carbachol addition. The Fluo-4 dye was excited at a wavelength of 485 nm and emission measured at 525 nm. The Calcium-3 dye was excited at a wavelength of 494 nm and emission measured at 525 nm. The calcium response was reported as the peak fluorescence minus the baseline fluorescence calculated as the average of the fluorescence prior to carbachol addition.

[2] = system: myocardial ischemia-reperfusion injury; test: Rat model of myocardial I/R injury (MI/AR ratio); assay type: in vivo; details: rat model of myocardial I/R injury; data not shown
Source text: A rat model of myocardial I/R injury was used as an in vivo screen to determine if certain lipoic acid derivative compounds are cardio-protective (e.g., against mycoardial ischemia-reperfusion injury). This model is analogous to the ischemia-reperfusion injury observed in cardiac patients following coronary occlusions and cardiac surgery procedures, such as coronary artery bypass grafting (CABG) (Matsui, T., Tao, J., del Monte, F., Lee, K.-H. et al., Akt Activation Preserves Cardiac Function and Prevents Injury After Transient Cardiac Ischemia In vivo, Circulation 2001, 104:330).
The circumflex branch of the left coronary artery was ligated temporarily to induce regional ischemia in the left ventricular mass, followed by the injection of fluorescent microspheres to delineate the ischemic region. The animals were sacrificed about 24 hours after reperfusion and the hearts were excised, sectioned and stained with triphenyltetrazolium. The direct impact of the pharmacologic intervention was determined by measuring the myocardial infarct area (MI), the ischemic area at risk (AR) and the left ventricular area (LV). The reduction of MI over the AR (MI/AR ratio) was used as the primary measure of drug efficacy relative to vehicle controls.
Male Sprague-Dawley rats between 300 and 350 gm were used for these experiments. Anesthesia was induced with 3-4% isoflurane in an induction chamber. After induction, anesthesia was maintained at a surgical plane with 1.5-2.0% isoflurane, administered by a Rodent Ventilator through a 16-gauge angiocatheter introduced orally into the trachea. The ventilator was set at 2.5 cc at a rate of 60-65 breaths per minute to maintain ventilation during surgery. The core temperature of the animal was monitored and maintained at 37° C. using a rectal probe and a heating lamp attached to a temperature controller.
A left anterior thoracotomy was performed and the heart was exposed using a vertical pericardotomy. The circumflex branch of the left coronary artery (LCx) was ligated approximately 4 mm from the aorta using a cardiovascular 7.0 monofilament suture on an 11 mm needle to induce ischemia in the left ventricle.
Fluorescent microspheres (300 μL) were injected into the left ventricular cavity 10-20 minutes after the ligation to delineate the ischemic area. The suture was removed 30 minutes after ligation to reperfuse the ischemic area and the ischemic area was checked for reperfusion.
The chest was then closed in layers using absorbable suture (Dexon 5-0) for the muscle layers and monofilament Nylon 5-0 suture was used to close the cutaneous layer. The animals were allowed to recover, then were returned to the colony.
Twenty-four hours after reperfusion, anesthesia was induced using ketamine hydrochloride and the chest was opened. The animals were sacrificed with 15% potassium chloride aqueous solution (w/v) injected into the LV cavity to arrest the heart in diastole. The heart was excised distal to the aortic valve and washed with saline to remove the blood. Sagittal slices of the heart were obtained between the base of the ventricle and the apex. Five slices of heart tissue were obtained, each 2 mm thick. The slices were immersed in a 1% 2,3,5-triphenyl-2H-tetrazolium chloride (TTC) in saline solution and then stored in the dark for 30 minutes to stain.
Images of the slices were obtained under bright field (to observe the TTC staining) and under fluorescence (to observe the microspheres). The area at risk was determined by the absence of microspheres and the infarct area was determined by the absence of TTC staining.
In vivo experiments employing a rat model of myocardial I/R injury were performed as described in Example 8. Catheterized (jugular vein) rats were used for intravenous dose administration at time points prior to and/or including 0.25 h.

Akt [3] = test: Immunohistochemistry assay for phosphorylated Akt in H9c2 cells; assay type: cell-based, rat; details: co-treatment with LY294002 (25 μM), 30 minutes prior to RLip-EA-OH
Protocol: The ability of RLip-EA-OH to increase phosphorylated Akt was assayed in H9c2 cells by immunocytochemistry followed by visualization using microscopy. H9c2 cells are a cell line derived from rat cardiac myocytes and can be manipulated to increase or decrease the level of phosphoryated Akt. Cells were inoculated onto culture plates and allowed to adhere to the bottom, treated, fixed, and permeabilized. Following permeabilization, cells were treated initially with specific phospho-Akt antibodies followed by fluorescent secondary antibodies to quantify the amount of bound primary antibody.
H9c2 cells were plated in 12 well cell culture treated plates at 70% confluence. Cells were incubated overnight to allow cell attachment. The media was changed to low serum (0.5%, fetal bovine serum [FBS]) and cells incubated for another 48 hours. Cells were treated for 3 hours with either vehicle, RLip-EA-OH (50 μM), or co-treatment with LY294002 (25 μM), fixed with 3.7% formaldehyde in phosphate buffered saline and permeabilized with 0.5% Triton X-100 in phosphate buffered saline. After permeabilization, the cells were treated with antibody specific for Akt phosphorylated at threonine-308, followed by treatment with a fluorescent labeled secondary antibody.

Akt [4] = test: Cytoblot assay for Akt activation in A549 cells; assay type: cell-based, human
Protocol: The ability of RLip-EA-OH to increase phosphorylated Akt was assayed using an in-cell western blot, or cytoblot. A549 cells (human non-small cell lung cancer cell line) were selected because these cells can be manipulated to increase or decrease the level of phosphoryated Akt. The cells were inoculated onto culture plates and allowed to adhere to the bottom, then treated, fixed, and permeabilized. Following permeabilization, the cells were treated with antibodies specific for either phospho-Akt or total Akt. The cells were then treated with fluorescent secondary antibodies to quantify the amount of bound primary antibody. Total Akt and phospho-Akt were simultaneously detected.
A549 cells were plated in 384 well black-wall, clear-bottom, cell culture-treated microtiter plates at 70% confluence. Cells were incubated overnight to allow cell attachment. The media was changed to low serum (0.1%, fetal bovine serum [FBS]) and the cells were incubated for another 24 hours. Cells were treated with test compounds, fixed and permeabilized for the Akt assay. The fixative was 3.7% formaldehyde in phosphate buffered saline. The permeabilization buffer was 0.5% Triton X-100 in phosphate buffered saline. After permeabilization of cells, the amounts of total Akt and phosphorylated Akt at either of the two phosphorylation sites (threonine-308 and serine-473) were determined at 7 test concentrations, each performed in quadruplicate. The phospho-Akt data were normalized to total Akt and background subtracted for analysis.
Following overnight serum starvation to reduce basal Akt phosphorylation, cells were stimulated with vehicle, RLip-EA-OH, or RLip-OH. Cells were treated for 45 minutes or 3 hours and studied for phosphorylation at serine-473 or threonine 308, respectively.

[5] = system: myocardial ischemia-reperfusion injury; test: Rat model of myocardial I/R injury (MI/AR ratio); assay type: in vivo; details: rat
insulin receptor kinase = biological target: T1, insulin receptor kinase (Homo sapiens, UniProt P06213); test: IRK activation assay (mobility shift kinase assay); assay type: biochemical
T1 construct: insulin receptor kinase domain (Millipore catalog #14-466, 80 nM); purchased Millipore 14-466
Source text: Insulin receptor kinase activity was readily measured by a mobility shift assay using a Caliper LabChip® 3000 and a 12-sipper LabChip® to detect both phosphorylated and unphosphorylated substrate (Caliper Life Sciences, Discovery Alliances and Services Division, Hanover, Md.). The mobility-shift kinase assay uses a micro fluidic chip to measure the conversion of a fluorescent peptide substrate to a phosphorylated product. The reaction mixture from a microtiter plate well was introduced through a capillary sipper onto the chip and the nonphosphorylated substrate and phosphorylated product were separated by electrophoresis and detected via laser-induced fluorescence. […] The catalytic subunits of tyrosine kinases have endogenous levels of activity in the presence of ATP and substrate, thus the results are presented as a % of control.
Specifically, each test compound was diluted to 25 times its assay concentration with 100% DMSO and added to 12 μL of an assay buffer solution (100 mM HEPES, 10 mM MnCl2, 5 mM B-GP, and 0.002% Brij) containing dithiotheritol (DTT, 2 mM) and insulin receptor kinase domain (Millipore catalog #14-466, 80 nM) prior to pre-incubation at room temperature for 15 minutes. […] The samples were placed on the LabChip 3000 to measure the amount of parent substrate and phosphorylated product. […]

IGF1R = IGF1R (Homo sapiens, UniProt P08069); test: IGF1R tyrosine kinase activation assay (mobility shift); assay type: biochemical
Source text: (§1) IGF1R and Src tyrosine kinases have endogenous levels of activity in the presence of ATP and substrate. This activity was readily measured using a mobility shift assay using a Caliper LabChip® 3000 and a 12-sipper LabChip® to detect both phosphorylated and unphosphorylated substrate (Caliper Life Sciences, Discovery Alliances and Services Division). Enzyme, substrate and ATP concentrations were optimized for each assay. For the IGF1R assay, the final concentrations of the enzyme, peptide and ATP were 20 nM, 1.5 μM, and 1220 μM, respectively. For the Src assay, the final concentrations of the enzyme, peptide and ATP were 2.5 nM, 1.5 μM, and 17 μM, respectively.
(§2) RLip-EA-OH was evaluated at multiple concentrations for an effect on activation of IGF1 receptor kinase (IGF1R) and Src. The compounds tested activated IGF1R and Src with different selectivities.

Src = Src (Homo sapiens, UniProt P12931); test: Src tyrosine kinase activation assay (mobility shift); assay type: biochemical
Source text: as §1, §2

Sequence of Src (P12931 whole entry, species assumed): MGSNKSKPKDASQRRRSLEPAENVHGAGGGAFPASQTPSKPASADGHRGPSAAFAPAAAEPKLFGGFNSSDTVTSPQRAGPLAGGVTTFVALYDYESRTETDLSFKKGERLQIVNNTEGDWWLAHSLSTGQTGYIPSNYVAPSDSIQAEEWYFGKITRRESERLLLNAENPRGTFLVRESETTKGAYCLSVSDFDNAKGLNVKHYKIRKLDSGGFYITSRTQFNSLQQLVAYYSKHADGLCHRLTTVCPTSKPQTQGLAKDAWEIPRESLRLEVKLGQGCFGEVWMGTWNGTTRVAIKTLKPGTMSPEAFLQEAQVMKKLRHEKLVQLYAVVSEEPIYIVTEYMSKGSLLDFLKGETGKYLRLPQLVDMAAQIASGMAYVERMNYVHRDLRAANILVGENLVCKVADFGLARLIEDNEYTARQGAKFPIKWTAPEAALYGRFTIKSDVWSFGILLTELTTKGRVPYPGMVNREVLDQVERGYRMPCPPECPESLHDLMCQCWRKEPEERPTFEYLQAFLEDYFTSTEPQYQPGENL
T1 sequence (P06213 1023-1298 limits assumed): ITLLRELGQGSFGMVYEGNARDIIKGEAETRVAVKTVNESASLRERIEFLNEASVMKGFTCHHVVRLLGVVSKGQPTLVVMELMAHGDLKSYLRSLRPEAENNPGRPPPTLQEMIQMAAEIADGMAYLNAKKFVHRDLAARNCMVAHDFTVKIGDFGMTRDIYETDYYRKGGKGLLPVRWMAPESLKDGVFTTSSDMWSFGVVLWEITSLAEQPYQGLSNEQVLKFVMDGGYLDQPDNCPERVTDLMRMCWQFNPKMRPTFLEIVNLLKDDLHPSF
Sequence of IGF1R (P08069 959-1367 limits assumed, species assumed): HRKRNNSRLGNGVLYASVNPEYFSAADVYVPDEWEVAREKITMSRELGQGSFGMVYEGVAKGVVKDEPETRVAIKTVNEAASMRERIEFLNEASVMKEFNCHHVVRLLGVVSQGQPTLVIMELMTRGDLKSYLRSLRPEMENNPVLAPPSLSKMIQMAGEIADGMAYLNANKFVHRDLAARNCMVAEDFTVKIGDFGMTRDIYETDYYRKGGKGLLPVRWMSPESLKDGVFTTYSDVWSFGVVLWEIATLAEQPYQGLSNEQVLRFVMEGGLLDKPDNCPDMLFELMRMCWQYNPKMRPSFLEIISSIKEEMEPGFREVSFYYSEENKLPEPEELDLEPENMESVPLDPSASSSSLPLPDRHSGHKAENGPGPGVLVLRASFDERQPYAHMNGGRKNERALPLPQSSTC

## CC(=O)N[C@@H](CCC(=O)O)C(=O)N[C@@H](C)C(=O)O [Ac-EA-OH, N-acetyl-L-glutamyl-L- alanine, reference compound] (Ac-Glu-Ala-OH)
[1]; ORAC assay
  peroxyl radical absorption capability: no appreciable peroxyl radical absorption capability
[1]; mean of 3-4 experiments
  ORAC Value relative to RLip-OH: 8 ± 5
CHO M1-WT3 cells
  effect on carbachol stimulated flux in cytosolic calcium: minimal effect
[2]
  efficacy compared to vehicle: statistically similar to vehicle

## O=c1cc(N2CCOCC2)oc2c(-c3ccccc3)cccc12 [LY294002, 2-(4-morpholinyl)-8-phenyl-4H-1-benzopyran-4-one, reference compound]
Akt [3]
  effect on fluorescence intensity from Akt phosphorylation induced by RLip-EA-OH: diminished the fluorescence intensity
Akt [4]; cotreatment with 5 μM LY294002, 3 hours
  effect on RLip-EA-OH-increased phosphorylation of Akt: completely inhibited

## O=C(O)CCCC[C@@H]1CCSS1 [RLip-OH, (R)-lipoic acid, reference compound]
[5]; 2 mg/kg IC, Table 7 meta analysis
  Reduction of MI:AR Ratio Relative to Vehicle (%): 19 ± 7 %
[1]; mean of 3-4 experiments
  ORAC Value relative to RLip-OH: 100 ± 6
Insulin receptor kinase; 300 μM
  IRK % Increase in activity above vehicle control: 48 ± 1%
IGF1R; 300 μM
  IGF1R % Increase in activity above vehicle control: 37 ± 4%
CHO M1-WT3 cells
  effect on carbachol stimulated flux in cytosolic calcium: minimal effect
Src; 300 μM
  Src % Increase in activity above vehicle control: 15 ± 1%
Akt [4]; 45 minutes of treatment
  increase in phosphorylated Akt at serine 473: 2 fold
Akt [4]; variant concentrations
  amount of phosphorylated Akt relative to total Akt: increased the amount of phosphorylated Akt relative to total Akt in a dose dependent manner

## C[C@H](NC(=O)[C@H](CCC(=O)O)NC(=O)CCCC[C@H]1CCSS1)C(=O)O [SLip-EA-OH, N-(S)-lipoyl-L-glutamyl-L- alanine]
[5]; 1 mg/kg single bolus IC 15 minutes prior to ischemia
  MI/AR: 0.401
[5]; 2 mg/kg single bolus IC 15 minutes prior to ischemia
  MI/AR: 0.400
[1]; mean of 3-4 experiments
  ORAC Value relative to RLip-EA-OH: 89 ± 4
Insulin receptor kinase; 100 μM
  AVG % activity above control (±SEM): 4 ± 12%
IGF1R; 100 μM
  IGF1R % activity above control (±SEM): −4 ± 10%
Src; 100 μM
  Src % activity above control (±SEM): 19 ± 1%
